Patent US20240197682A1, “METHOD FOR TREATING NEUROLOGICAL DISEASES USING SUPRAMOLECULE POLYMER THERAPEUTICS” (The Regents of the University of California, priority 2022, published 2024)
Read-outs that look alike come from different tables or passages of the source.

What was measured:
[1] = molecular target: T1, YFP-tagged full length 0N4R-Tau P301S aggregates seeded by 416-AD11A lysate (T24 cells) (Homo sapiens, UniProt P10636, P618S); assay: Tau-AD high throughput screening (counter screen) in T24 cells; assay type: cell-based; settings: T24 cells transfected with 416-AD11A lysate
T1 construct: C-terminally YFP-tagged full length 0N4R-Tau carrying a P301S mutation; expressed in transfected cells
T1 sequence (P10636 1-383 isoform P10636-6 P243S): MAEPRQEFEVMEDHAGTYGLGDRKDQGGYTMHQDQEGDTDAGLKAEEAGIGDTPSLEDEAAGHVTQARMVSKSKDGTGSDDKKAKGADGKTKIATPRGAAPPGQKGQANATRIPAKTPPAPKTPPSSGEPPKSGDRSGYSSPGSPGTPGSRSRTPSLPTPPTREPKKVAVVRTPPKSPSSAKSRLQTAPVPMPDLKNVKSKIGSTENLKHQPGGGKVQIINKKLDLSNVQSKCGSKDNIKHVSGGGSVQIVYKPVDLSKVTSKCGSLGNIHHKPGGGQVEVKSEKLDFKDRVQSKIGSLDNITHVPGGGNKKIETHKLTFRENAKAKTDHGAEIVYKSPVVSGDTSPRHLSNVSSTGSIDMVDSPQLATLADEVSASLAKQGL
Method: A fragment of the Middle Tempral Gyrus (MTG) from Alzheimer's Disease (AD) patient 2217 was resuspended in 9 volumes of PBS (ml/g of brain) and homogenized 3×12 seconds using a probe homogenizer (Thomas Scientific) with disposable Omni Tip plastic homogenizing probes (Thomas Scinetific Cat No 3409Y77) to generate a 10% brain homogenate (10% AD11-BH). The 10% AD11-BH was clarified of insoluble debris by centrifugation at 800×g for 5 minutes. The resulting supernatant was collected and the protein concentration of this clarified BH (AD11-CBH) was determined by bicinchoninic acid assay (BCA) (Thermo Fisher Cat No. 23227). HEK293 cells stably expressing a C-terminally Clover-tagged truncated 4R-Tau^243-382 transgene containing the P301L and V337M mutations and a C-terminally Ruby-tagged truncated 3R-Tau^243-382 transgene containing the L266V and V337M mutations (128/139 cells) were transfected with the AD11-CBH using lipofectamine 2000 (LF2K) (Thermo Fisher Cat No. 11668500). Briefly, 0.32 μl of LF2K were diluted in 5 μl Opti-MEM (Thermo Scientific Cat No 31985070) per well of a 384-well plate and incubated for 5 min at room temperature (RT). This mixture was added to 0.32 μg of AD11-CBH diluted in 5 μl of PBS per well of a 384-well plate and vortex briefly. The transfection mixture was incubated at room temperature for 90 min. The transfection complexes were subsequently added to a single well of a 384-well plate containing 3500 128/139 cells. After 3 days the cells were harvested, counted and plated at a density of 1 cell/well in a 96-well plate. A clonal cell line containing Clover and Ruby positive Tau aggregates was selected and termed 416-AD11A cells. Following the expansion of these 416-AD11A cells, a cell lysate was prepared by freeze/thaw. The cells from a confluent T175 flask were harvested in 1 ml of PBS containing 1× protease inhibitor cocktail by scraping. The cell suspension was subjected to 4 cycles of freezing in liquid nitrogen for 5 minutes followed by thawing at 37° C. for 5 minutes. The resulting cell lysate was centrifuged at 2000 RPM for 10 minutes to remove the cell debris and the protein concentration of the resulting 416-AD11A lysate was determined by BCA assay and aliquots frozen for future use.
HEK293 cells stably expressing C-terminally YFP-tagged full length 0N4R-Tau carrying a P301S mutation (T24 cells) are plated at a density of 4000 cells per well of a 384-well black walled, clear bottom plate (Greiner Cat No 5678-1091Q) in 60 μl of complete DMEM (DMEM (Corning Cat No 10-013-CV), 10% FBS (VWR Cat No 97068-085, 0.5% Penicilin/streptomycin (Gibco Cat No 15140-122)) containing 0.1 μg/ml Hoechst Dye (Thermo Scientific Cat No H3570). Transfection complexes are prepared by diluting 0.15 μg of 416-AD11A lysate or HEK lysate in 5 μl of PBS per well to be transfected and 0.15 μl of Lipofectamine 2000 (LF2K) (ThermoFisher Cat No 11668500) in 5 μl of Opti-MEM per well to be transfected in separate tubes. The pre-diluted 416-AD11A or HEK lysates and LF2K are subsequently mixed and allowed to incubate for 90 minutes at RT. A 10 μl aliquot of the 416-AD11A or HEK transfection complexes is added to the appropriate wells of the 384-well plate containing the T24 cells using the Bravo liquid handling platform (Agilent). Wells A23-P24 of the 384-well plate are transfected with HEK lysate to act as a reference point for spontaneous aggregation of 0N4R^P301S and for transfection related toxicity. The dilution of test compounds is performed using the Bravo liquid handling platform (Agilent). The control is DMSO in the absence of any test compound. Briefly, 1 μl of each test compound (5 mM stock) in the 384-well test plate was transferred to a 384-well plate (Greiner Cat No 781280) containing 61.5 μl of complete DMEM to generate a working stock of compounds at 80 μM. […]

[2] = Parallel Artificial Membrane Permeability Assay (PAMPA); assay type: in vitro ADME; settings: for Papp at 4 hr, 200 uM: PAMPA, read-out: PAMPA: P_app; for PAMPA: P_app: 200 uM test compound, 4 hr
Method: 5 uL of 1% lecithin (VWR 0579) dissolved in n-dodecane (Sigma Aldrich D221104) was applied to each well of a MultiScreen IP PAMPA filter plate (Millipore MAIPSWU10) and allowed to equilibrate for 5 minutes. 300 uL of PBS was added to the acceptor plate and 150 uL of 200 uM test compound dissolved in PBS and 30% ethanol was added to the donor wells before incubating the donor plate in the acceptor plate for 4 hr at 500 rpm. 100 uL was sampled from the donor and acceptor wells and the concentrations were measured by liquid chromatography-mass spectrometry (SCIEX 4500) or UV-VIS plate reader (BMG).

| SMILES | AD Tau Aggregates (% control) [1] [% control] | also measured |
| --- | --- | --- |
| CNC(=O)c1ncc2c(-c3ccc(F)cc3)nn(Cc3ccc(F)cc3)c2n1 [Compound 261] | 87 |  |
| CNC(=O)c1ncc2c(-c3ccc(F)cc3)nn(C3CCc4ccc(F)cc43)c2n1 (stereo not shown) [Compound 257, 1-(6-fluoro-2,3-dihydro-1H-inden-1-yl)-3-(4-fluorophenyl)-N-methyl-1H-pyrazolo[3,4-d]pyrimidine-6-carboxamide] | 100 |  |
| CNC(=O)c1ncc2c(C#Cc3ccccc3)nn(-c3ccc(OC(F)F)cc3)c2n1 [Compound 290, 1-(4-(difluoromethoxy)phenyl)-N-methyl-3-(phenylethynyl)-1H-pyrazolo[3,4-d]pyrimidine-6-carboxamide] | 95 | Papp at 4 hr, 200 uM ([2]; pH 5.0, 200 uM test compound): 16.5 ×10⁻⁶ cm/s; Papp at 4 hr, 200 uM ([2]; pH 7.4, 200 uM test compound): 39.3 ×10⁻⁶ cm/s |
| CC(=O)Cc1nccc2cc(-c3nc(-n4ccc5cccnc5c4=O)c(-c4ccc(C(F)(F)F)cc4)o3)ccc12 [Compound 176, 7-(2-(1-(2-oxopropyl)isoquinolin-6-yl)-5-(4-(trifluoromethyl)phenyl)oxazol-4-yl)-1,7-naphthyridin-8(7H)-one] | 96 |  |
| CC(=O)Nc1ncc2c(-c3ccccc3C#N)nn(Cc3ccccc3)c2n1 [Compound 268] | 105 |  |
| CC(=O)Nc1ncc2c(-c3ccccc3C)nn(Cc3ccccc3)c2n1 [Compound 266] | 98 | PAMPA: P_app ([2]; pH 5.0): >50 ×10e−6 cm/sec; PAMPA: P_app ([2]; pH 7.4): >50 ×10e−6 cm/sec |
| CNC(=O)c1ncc2c(-c3cccc4c3OC(F)(F)O4)nn(Cc3ccccc3)c2n1 [Compound 254] | 100 |  |
| CNC(=O)c1ncc2c(N3CCCC3)nn(-c3ccc(F)cc3)c2n1 [Compound 247, 1-(4-fluorophenyl)-N-methyl-3-(pyrrolidin-1-yl)-1H-pyrazolo[3,4-d]pyrimidine-6-carboxamide] | 120 |  |
| CNC(=O)c1ncc2c(-c3cc4c(cnn4C)cc3F)nn(Cc3ccccc3)c2n1 [Compound 253] | 96 |  |
| CNC(=O)c1ncc2c(-c3ccc(F)cc3)nn(CC3CCCCC3)c2n1 [Compound 258] | 110 |  |
| CNc1ncc2c(-c3ccccc3)nn(-c3ccccc3)c2n1 [Compound 286, N-methyl-1,3-diphenyl-1H-pyrazolo[3,4-d]pyrimidin-6-amine] | 100 |  |
| CNc1nc(=O)n(-c2nc(-c3ccc(Cl)cc3)oc2-c2ccc(Cl)c(F)c2)cc1F.Cl [Compound 126, 1-(5-(4-chloro-3-fluorophenyl)-2-(4-chlorophenyl)oxazol-4-yl)-5-fluoro-4-(methylamino)pyrimidin-2(1H)-one hydrochloride] | 93 |  |
| CNC(=O)c1ncc2c(-c3ccccc3)cn(-c3ccccc3)c2n1 [Compound 291, N-methyl-5,7-diphenyl-7H-pyrrolo[2,3-d]pyrimidine-2-carboxamide] | 110 |  |
| CCNc1nc(=O)n(-c2nc(-c3ccc(Cl)cc3)oc2-c2ccc(Cl)c(F)c2)cc1F [Compound 127, 1-(5-(4-chloro-3-fluorophenyl)-2-(4-chlorophenyl)oxazol-4-yl)-4-(ethylamino)-5-fluoropyrimidin-2(1H)-one] | 105 |  |
| Cc1cc(-c2nc(-n3cc4ccn(C5CC5)c4nc3=O)c(-c3ccc(F)c(F)c3)o2)ncc1F [Compound 234] | 85 |  |
| CNC(=O)c1ncc2c(-c3ccc(F)cc3)nn(Cc3ccnc(F)c3)c2n1 [Compound 259] | 99 |  |
| CC(O)COc1ccc(-c2nc(-n3cc4ccoc4nc3=O)c(-c3ccc(F)cc3)o2)cc1 (stereo not shown) [Compound 182, 3-[5-(4-fluorophenyl)-2-[4-(2-hydroxypropoxy)phenyl]-1,3-oxazol-4-yl]-2H,3H-furo[2,3-d]pyrimidin-2-one] | 93 |  |
| CNc1nc(=O)n(-c2nc(-c3cccc(C)c3)oc2-c2cc(Cl)cs2)cc1F [Compound 135, 1-(5-(4-chlorothiophen-2-yl)-2-(m-tolyl)oxazol-4-yl)-5-fluoro-4-(methylamino)pyrimidin-2(1H)-one] | 100 |  |
| CNC(=O)c1ncc2c(-c3ccc(F)cc3)nn(Cc3cccc(F)c3)c2n1 [Compound 260] | 95 |  |

Further lines, with some results ahead:

| AD Tau Aggregates (% control) [1] [% control] | SMILES | also measured |
| --- | --- | --- |
| 95 | Cc1ccnn1-c1nc(-n2cc3ccn(C(F)(F)F)c3nc2=O)c(-c2ccc(F)cc2)o1 [Compound 240] | PAMPA: P_app ([2]; pH 7.4): 2.41 ×10e−6 cm/sec |
| 95 | CNC(=O)c1ncc2c(-c3ccccc3)nn(Cc3ccccc3)c2n1 [Compound 248] | PAMPA: P_app ([2]; pH 5.0): 46.6 ×10e−6 cm/sec; PAMPA: P_app ([2]; pH 7.4): >50 ×10e−6 cm/sec |
| 91 | CC(=O)Nc1ncc2c(-c3ccccc3)nn(Cc3cncc(F)c3)c2n1 [Compound 267] | PAMPA: P_app ([2]; pH 7.4): 5.98 ×10e−6 cm/sec |
| 90 | CC(=O)Nc1ncc2c(-c3ccccc3)nn(CC3CCCCC3)c2n1 [Compound 280] | PAMPA: P_app ([2]; pH 5.0): 19.5 ×10e−6 cm/sec; PAMPA: P_app ([2]; pH 7.4): 19.5 ×10e−6 cm/sec |
| 92 | CNc1nc(=O)n(-c2nc(-c3cccc(C)c3)oc2-c2ccc(F)c(F)c2)cc1F.Cl [Compound 133, 1-(5-(3,4-difluorophenyl)-2-(m-tolyl)oxazol-4-yl)-5-fluoro-4-(methylamino)pyrimidin-2(1H)-one hydrochloride] |  |
| 95 | CNc1nc(=O)n(-c2nc(-c3ccc(C)s3)oc2-c2ccc(Cl)c(F)c2)cc1F [Compound 132, 1-(5-(4-chloro-3-fluorophenyl)-2-(5-methylthiophen-2-yl)oxazol-4-yl)-5-fluoro-4-(methylamino)pyrimidin-2(1H)-one] |  |
| 110 | CC(=O)Nc1ncc2c(-c3ccccc3)nn(C(C)c3ccccc3)c2n1 (stereo not shown) [Compound 265] |  |
| 91 | Cc1cc(-c2nc(-n3cc4ccn(C5CC5)c4nc3=O)c(-c3ccc(Cl)c(F)c3)o2)ccn1 [Compound 232, 3-[5-(4-chloro-3-fluorophenyl)-2-(2-methylpyridin-4-yl)-1,3-oxazol-4-yl]-7-cyclopropyl-2H,3H,7H-pyrrolo[2,3-d]pyrimidin-2-one] |  |
